Data on twelve compounds can be found in US8268848B2, “Cyclopropane compound” (Eisai R&D Management Co., Ltd., priority 2010, dated 2012).

The subject of test [1] is mice (C57BL/6NCrlCrLj). Kind of test: Sleep experiment (EEG/EMG) in mice. The test is classed as in vivo. Conditions: for minimum effective dose (MED): oral, doses 0.3 to 100 mg/kg, accumulated sleep time within three hours after administration. Here is the method: As a method for measuring the influence of the present compound on sleep time, electroencephalogram (EEG) and electromyogram (EMG) measurements were carried out in mice (C57BL/6NCrlCrLj).
In order to measure brain waves and muscle signals, EEG and EMG electrode implantation was performed on individual mice, and the mice were then housed in a state in which they could freely move and habituate in individual recording cages for 1 week or longer. Thereafter, amplified EEG and EMG signals were digitally recorded.
Mice received either oral administration of vehicle or test compound in vehicle, after which sleep/wake behavior of mice was recorded for 3 hours.
For sleep analysis, automatic analysis software from Kissei Comtec Co., Ltd. was used to analyze EEG frequency and EMG activity signals in detail and to determine sleep and wake states. Thereafter, accumulated sleeping time over 3 hours was calculated.
The effect of the compound to increase sleep time was evaluated as the difference between sleeping time on the vehicle-administration day and the sleep time on the subsequent drug-administration day.
The minimum effective dose (MED; mg/kg) was obtained from accumulated sleep time of mice with three hours after the administration.

Test [2] deals with T1, OX1 (Homo sapiens, UniProt O43613).
T1 sequence (O43613 1-425): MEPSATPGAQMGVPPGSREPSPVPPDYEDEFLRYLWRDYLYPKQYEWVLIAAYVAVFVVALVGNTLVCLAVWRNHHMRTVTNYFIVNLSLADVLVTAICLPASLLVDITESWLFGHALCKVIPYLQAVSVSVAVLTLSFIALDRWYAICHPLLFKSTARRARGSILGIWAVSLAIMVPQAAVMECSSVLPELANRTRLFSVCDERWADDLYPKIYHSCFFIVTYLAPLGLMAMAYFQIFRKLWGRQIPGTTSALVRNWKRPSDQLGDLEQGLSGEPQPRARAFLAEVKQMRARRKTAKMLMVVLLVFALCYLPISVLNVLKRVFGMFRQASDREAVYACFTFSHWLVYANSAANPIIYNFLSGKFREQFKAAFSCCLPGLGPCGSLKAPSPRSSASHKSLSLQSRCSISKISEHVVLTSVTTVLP
The test can be described thus: Measurement of orexin receptor-binding ability ([125I]-OX-A, cell membranes, OX1). Also on record: expressed in transfected cells; host or cells: CHO cells (membrane preparation).

The target of test [3] is T2, OX2 (Homo sapiens, UniProt O43614).
T2 sequence (O43614 1-444): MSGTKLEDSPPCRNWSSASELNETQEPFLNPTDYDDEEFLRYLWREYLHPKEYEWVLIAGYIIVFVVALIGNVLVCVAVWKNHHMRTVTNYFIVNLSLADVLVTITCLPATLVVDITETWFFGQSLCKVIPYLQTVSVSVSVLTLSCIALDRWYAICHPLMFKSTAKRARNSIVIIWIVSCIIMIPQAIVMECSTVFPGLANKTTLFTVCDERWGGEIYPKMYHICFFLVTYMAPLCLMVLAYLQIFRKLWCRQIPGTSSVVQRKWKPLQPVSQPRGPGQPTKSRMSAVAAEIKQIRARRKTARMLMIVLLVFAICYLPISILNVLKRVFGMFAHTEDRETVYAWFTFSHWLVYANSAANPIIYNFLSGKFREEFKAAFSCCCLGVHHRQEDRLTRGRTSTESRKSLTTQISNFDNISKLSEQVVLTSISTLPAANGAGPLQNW
Kind of test: Measurement of orexin receptor-binding ability ([125I]-OX-A, cell membranes, OX2). On the set-up: expressed in transfected cells; host or cells: CHO cells (membrane preparation). To be noted: membranes of recombinant CHO cells expressing OX2, 0.2 nM [125I]-OX-A.

Test [4] deals with T1, OX1. Kind of test: Measurement of antagonism (PLAP assay), OX1. The class given is cell-based. Also on record: expressed in transfected cells; host or cells: HEK-293 cells, expression vector pBabeCLIH. Here is the method:
(§1) 2. Measurement of Antagonism (PLAP Assay)
(§2) The antagonistic function of the compound of the present invention to prevent the activation of OX2 and OX1 by orexin-A (OX-A), which is a natural peptide agonist, was measured using a cell-based reporter assay. […] The cells were plated at a density of 10,000 cells/well onto a non-coated 96-well plate in Dulbecco's modified Eagle medium (Sigma Cat No. D6046:10% v/v heat-inactivated fetal bovine serum was contained). The cells were cultured at 37° C. overnight, so that they could adhere to the plate. On the following day, cells were incubated with a compound of the present invention dissolved in Dulbecco's modified Eagle medium (Sigma Cat No. A8806:0.1% w/v bovine serum albumin was contained), and added to the cell plate to reach a final concentration of 0.1% dimethyl sulfoxide.
(§3) The thus obtained mixture was incubated at room temperature for 1 hour. Thereafter, human OX-A and forskolin were dissolved in the same medium as described above, which contained fetal bovine serum albumin, and the medium was then added to the cells, resulting in a final concentration of 300 nM forskolin. Subsequently, the cells were cultured at 37° C. for approximately 18 to 24 hours.

The target of test [5] is T2, OX2. Kind of test: Measurement of antagonism (PLAP assay), OX2. The test is classed as cell-based. Also on record: expressed in transfected cells; host or cells: HEK-293 cells, expression vector pBabeCLIH. The protocol: as §1, §2, §3
Setting [6] is: mice, oral administration, difference to vehicle day, 3 hours.
Where [7] appears, read: membranes of recombinant CHO cells expressing OX1, 0.2 nM [125I]-OX-A, read-out: OX1 (IC50).
Where [8] appears, read: HEK-293 cells expressing human OX1, 1 nM human OX-A, IC50 converted by Cheng-Prusoff equation, read-out: OX1 (Ki).
Where [9] appears, read: HEK-293 cells expressing human OX2, 1 nM human OX-A, IC50 converted by Cheng-Prusoff equation, read-out: OX2 (Ki).

SMILES strings stand for the structures. Where two headings read alike, the source gives them in different places.

As usually defined, the IC50 is the concentration that gives 50% inhibition. The term Ki denotes the dissociation constant of the complex between target and ligand, obtained from inhibition or displacement. For `Cc1ncc(OC[C@@]2(c3ccccc3)C[C@H]2C(=O)Nc2ccc(F)cn2)c(C)n1` [Example 1, (1R,2S)-2-{[(2,4-dimethylpyrimidin-5-yl)oxy]methyl}-N-(5-fluoropyridin-2-yl)-2-phenylcyclopropanecarboxamide], the “Sleep extended time 10 mg/kg (min/3 hrs)” value in test [1] (setting [6]) amounted to 18.3 min/3 hrs. In addition, in test [1] (mice), the “minimum effective dose (MED)” value amounted to 30 mg/kg. For the same compound, the IC50 in test [2] (setting [7]) came to 139 nM; in test [3] (OX2 (IC50) nM) it was 6.8 nM. The Ki in test [4] (setting [8]) stood at 157 nM; in test [5] it was 10 nM.

As for `Cc1ncc(OC[C@@]2(c3ccccc3)C[C@H]2C(=O)Nc2ccc(Cl)cn2)c(C)n1` [Example 16, (1R,2S)-N-(5-chloropyridin-2-yl)-2-{[(2,4-dimethylpyrimidin-5-yl)oxy]methyl}-2-phenylcyclopropanecarboxamide], in test [1] (po, 3 h), the “Sleep extended time 10 mg/kg (min/3 hrs)” value amounted to 19.0 min/3 hrs. In addition, the figures for the IC50 in test [2] (setting [7]) and in test [3] (read-out: OX2 (IC50)) were 40 nM and 1.9 nM, respectively. Also, the Ki in test [4] (setting [8]) came out at 80 nM; in test [5] (setting [9]), 5.4 nM.

On to `Cc1ncc(OC[C@@]2(c3ccccc3)C[C@H]2C(=O)Nc2cc(C)c(Cl)cn2)c(C)n1` [Example 45, (1R,2S)-N-(5-chloro-4-methylpyridin-2-yl)-2-{[(2,4-dimethylpyrimidin-5-yl)oxy]methyl}-2-phenylcyclopropanecarboxamide], for which the “Sleep extended time 10 mg/kg (min/3 hrs)” value in test [1] (po, 3 h) worked out at 15.2 min/3 hrs. Besides, the IC50 came to 13.9 nM in test [2] (setting [7]) and 6.2 nM in test [3] (read-out: OX2 (IC50)). For the same compound, the Ki in test [4] (setting [8]) was 19 nM; in test [5] (setting [9]), 0.45 nM.

`Cc1ncc(OC[C@@]2(c3ccccc3)C[C@H]2C(=O)Nc2cc(C)c(F)cn2)c(C)n1` [Example 51, (1R,2S)-2-{[(2,4-dimethylpyrimidin-5-yl)oxy]methyl}-N-(5-fluoro-4-methylpyridin-2-yl)-2-phenylcyclopropanecarboxamide]: in test [1] (setting [6]), the “Sleep extended time 10 mg/kg (min/3 hrs)” value worked out at 23.6 min/3 hrs. Also, the “minimum effective dose (MED)” value in test [1] (mice) is 3 mg/kg. The IC50 in test [2] is 6.4 nM; in test [3] (OX2 (IC50) nM) it was 3.9 nM. In addition, the Ki in test [4] was determined as 29 nM; in test [5], 1.2 nM.

Take `Cc1ncc(OC[C@@]2(c3cccc(F)c3)C[C@H]2C(=O)Nc2cc(C)c(F)cn2)c(C)n1` [Example 82, (1R,2S)-2-{[(2,4-dimethylpyrimidin-5-yl)oxy]methyl}-N-(5-fluoro-4-methylpyridin-2-yl)-2-(3-fluorophenyl)cyclopropanecarboxamide]: the “Sleep extended time 10 mg/kg (min/3 hrs)” value in test [1] (setting [6]) is listed as 33.5 min/3 hrs. Also, the IC50 in test [2] was 2.4 nM; in test [3] (OX2 (IC50) nM), 3.7 nM. In addition, the inhibition constant Ki in test [4] (setting [8]) is 0.96 nM; in test [5] it was 0.085 nM.

As to `Cc1ncc(OC[C@@]2(c3ccc(F)cc3)C[C@H]2C(=O)Nc2ccc(F)cn2)c(C)n1` [Example 100, (1R,2S)-2-{[(2,4-dimethylpyrimidin-5-yl)oxy]methyl}-2-(4-fluorophenyl)-N-(5-fluoropyridin-2-yl)cyclopropanecarboxamide], the “Sleep extended time 10 mg/kg (min/3 hrs)” value in test [1] (setting [6]) came out at 23.8 min/3 hrs. In addition, the half-inhibitory concentration (IC50) in test [2] was determined as 40 nM; in test [3] (OX2 (IC50) nM) it was 7.6 nM. The Ki in test [4] (setting [8]) stood at 147 nM; in test [5] (setting [9]) it was 9.4 nM.

`CCc1nc(C)ncc1OC[C@@]1(c2ccccc2)C[C@H]1C(=O)Nc1ccc(F)cn1` [Example 119, (1R,2S)-2-{[(4-ethyl-2-methylpyrimidin-5-yl)oxy]methyl}-N-(5-fluoropyridin-2-yl)-2-phenylcyclopropanecarboxamide]: the “Sleep extended time 10 mg/kg (min/3 hrs)” value in test [1] (setting [6]) is listed as 16.0 min/3 hrs. For the same compound, the IC50 in test [2] turned out to be 21 nM; in test [3] (OX2 (IC50) nM), 5.2 nM. In addition, the Ki came out at 21 nM in test [4] (setting [8]) and 0.6 nM in test [5] (setting [9]).

As for `CCc1nc(C)ncc1OC[C@@]1(c2ccccc2)C[C@H]1C(=O)Nc1ccc(C#N)cn1` [Example 120, (1R,2S)-N-(5-cyanopyridin-2-yl)-2-{[(4-ethyl-2-methylpyrimidin-5-yl)oxy]methyl}-2-phenylcyclopropanecarboxamide], the “Sleep extended time 10 mg/kg (min/3 hrs)” value in test [1] (po, 3 h) was determined as 11.5 min/3 hrs. In addition, the results for the IC50 in test [2] (setting [7]) and in test [3] (read-out: OX2 (IC50)) were 123 nM and 7 nM, respectively. For the same compound, the Ki is 273 nM in test [4] (setting [8]) and 5.7 nM in test [5] (setting [9]).

Regarding `CCc1nc(C)ncc1OC[C@@]1(c2ccccc2)C[C@H]1C(=O)Nc1ccc(Cl)cn1` [Example 121, (1R,2S)-N-(5-chloropyridin-2-yl)-2-{[(4-ethyl-2-methylpyrimidin-5-yl)oxy]methyl}-2-phenylcyclopropanecarboxamide], in test [1] (po, 3 h), the “Sleep extended time 10 mg/kg (min/3 hrs)” value was 26.7 min/3 hrs. Moreover, the IC50 in test [2] (setting [7]) was determined as 10 nM; in test [3] (read-out: OX2 (IC50)), 3.1 nM. For the same compound, the values for the Ki in test [4] (setting [8]) and in test [5] (setting [9]) were 26 nM and 0.3 nM, respectively.

`Cc1ncc(OC[C@@]2(c3cc(F)cc(F)c3)C[C@H]2C(=O)Nc2cc(C)c(F)cn2)c(C)n1` [Example 129, (1R,2S)-2-(3,5-difluorophenyl)-2-{[(2,4-dimethylpyrimidin-5-yl)oxy]methyl}-N-(5-fluoro-4-methylpyridin-2-yl)cyclopropanecarboxamide]: the “Sleep extended time 10 mg/kg (min/3 hrs)” value in test [1] (po, 3 h) was determined as 30.0 min/3 hrs. Besides, the IC50 came to 1 nM in test [2] (setting [7]) and 1.5 nM in test [3] (read-out: OX2 (IC50)). The Ki in test [4] (setting [8]) amounted to 0.97 nM; in test [5] (setting [9]), 0.06 nM.

With `Cc1ncc(OC[C@@]2(c3ccc(Cl)cc3)C[C@H]2C(=O)Nc2ccc(F)cn2)c(C)n1` [Example 161], the “Sleep extended time 10 mg/kg (min/3 hrs)” value in test [1] (setting [6]) is reported as 10.0 min/3 hrs. Besides, the IC50 in test [2] was determined as 50 nM; in test [3] (OX2 (IC50) nM), 12 nM. In addition, the Ki in test [4] (setting [8]) amounted to 32 nM; in test [5] (setting [9]), 2.9 nM.

Turning to `Cc1ncc(OC[C@@]2(c3ccc(F)c(F)c3)C[C@H]2C(=O)Nc2cc(C)c(F)cn2)c(C)n1` [Example 164, (1R,2S)-2-(3,4-difluorophenyl)-2-{[(2,4-dimethylpyrimidin-5-yl)oxy]methyl}-N-(5-fluoro-4-methylpyridin-2-yl)cyclopropanecarboxamide], the “Sleep extended time 10 mg/kg (min/3 hrs)” value in test [1] (po, 3 h) was 48.4 min/3 hrs. The IC50 in test [2] (setting [7]) was found to be 3 nM; in test [3] (read-out: OX2 (IC50)) it was 6 nM. The figures for the Ki in test [4] (setting [8]) and in test [5] (setting [9]) were 0.93 nM and 0.087 nM, respectively.
